From the supplement of paper PMC10307832

Key:
Test in all cases: relative viability (nuclei count vs DMSO), 5 days (fraction); higher = more cells survive
Mirin + Alpelisib = compound: N=C1NC(=O)/C(=C/c2ccc(O)cc2)S1 [Mirin] + Cc1nc(NC(=O)N2CCC[C@H]2C(N)=O)sc1-c1ccnc(C(C)(C)C(F)(F)F)c1 [Alpelisib] (partner 2 µM)
Method in brief: (§1)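 Dosing by pin tool came one day after lung cancer cell lines were seeded in 1536-well plates, using either one drug or a fixed anchor-drug dose plus five library-drug doses (not always all listed) in √10 steps. After 5 days, nuclei were counted on 4× images. Relative viability is treated-well nuclei count divided by vehicle-well nuclei count, and values are medians of duplicate plates.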

Mirin + Crizotinib = compound: N=C1NC(=O)/C(=C/c2ccc(O)cc2)S1 [Mirin] + C[C@@H](Oc1cc(-c2cnn(C3CCNCC3)c2)cnc1N)c1c(Cl)ccc(F)c1Cl [Crizotinib] (partner 1 µM)
Method in brief: as §1

Mirin + OSI-027 = compound: N=C1NC(=O)/C(=C/c2ccc(O)cc2)S1 [Mirin] + COc1cccc2cc(-c3nc([C@H]4CC[C@H](C(=O)O)CC4)n4ncnc(N)c34)[nH]c12 [OSI-027] (partner 0.5 µM)
Method in brief: as §1

Mirin + Foretinib = compound: N=C1NC(=O)/C(=C/c2ccc(O)cc2)S1 [Mirin] + COc1cc2c(Oc3ccc(NC(=O)C4(C(=O)Nc5ccc(F)cc5)CC4)cc3F)ccnc2cc1OCCCN1CCOCC1 [Foretinib] (partner 0.25 µM)
Method in brief: as §1

Cell Line | relative viability (Mirin + Alpelisib; first compound 0.25 µM) | relative viability (Mirin + Alpelisib; first compound 0.7906 µM) | relative viability (Mirin + Alpelisib; first compound 2.5 µM) | relative viability (Mirin + Alpelisib; first compound 7.906 µM) | relative viability (Mirin + Alpelisib; first compound 25 µM) | relative viability (Mirin + Crizotinib; first compound 0.25 µM) | relative viability (Mirin + Crizotinib; first compound 0.7906 µM) | relative viability (Mirin + Crizotinib; first compound 2.5 µM) | relative viability (Mirin + Crizotinib; first compound 7.906 µM) | relative viability (Mirin + Crizotinib; first compound 25 µM) | relative viability (Mirin + OSI-027; first compound 0.25 µM) | relative viability (Mirin + OSI-027; first compound 0.7906 µM) | relative viability (Mirin + OSI-027; first compound 7.906 µM) | relative viability (Mirin + OSI-027; first compound 25 µM) | relative viability (Mirin + Foretinib; first compound 0.25 µM) | relative viability (Mirin + Foretinib; first compound 0.7906 µM) | relative viability (Mirin + Foretinib; first compound 2.5 µM) | relative viability (Mirin + Foretinib; first compound 7.906 µM) | relative viability (Mirin + Foretinib; first compound 25 µM) | relative viability (Mirin + OSI-027; first compound 2.5 µM)
201T | 1.01 | 1 | 1.02 | 1.11 | 1.14 | 0.936 | 1.09 | 0.995 | 1.16 | 1.22 | 0.75 | 0.832 | 0.629 | 0.64 | 1.1 | 1.24 | 1.17 | 1.06 | 1.17 | 
A549 | 0.635 | 0.719 | 0.58 | 0.58 | 0.733 | 0.799 | 0.9 | 0.739 | 0.675 | 0.68 |  |  |  |  | 0.89 | 1.02 | 0.902 | 0.956 | 1.04 | 
A-427 | 1.2 |  | 1.15 | 1.1 | 1.14 | 0.87 |  | 0.809 | 0.881 | 0.958 | 0.484 |  | 0.272 | 0.411 | 1.06 |  | 1.07 | 1.05 | 0.607 | 0.525
ABC-1 | 1.34 | 1.14 | 1.09 | 1.1 | 0.633 | 0.993 | 1.09 | 0.866 | 0.918 | 0.664 | 0.442 | 0.346 | 0.467 | 0.225 | 1.35 | 1.08 | 0.971 | 1.03 | 0.587 | 0.484
BEN | 1.03 | 1.08 | 1.09 | 0.973 | 0.467 | 0.855 | 0.753 | 1.01 | 0.82 | 0.43 | 0.288 | 0.306 | 0.286 | 0.192 | 0.567 | 0.654 | 0.68 | 0.552 | 0.386 | 0.273
CAL-12T | 1 | 1.36 | 1.15 | 1.23 | 1.34 | 0.667 | 0.509 | 0.619 | 0.573 | 0.639 | 0.797 |  | 0.695 | 0.525 | 1.16 |  | 1.12 | 1.04 | 1.31 | 0.681
COR-L23 | 0.847 | 0.822 | 0.758 | 0.715 | 0.682 | 0.69 | 0.828 | 0.75 | 0.556 | 0.617 | 0.803 | 0.816 | 0.69 | 0.728 | 1.07 | 1.14 | 0.879 | 1.01 | 1.05 | 0.761
COR-L 105 | 0.914 | 1.26 | 1.13 | 0.925 | 1.04 | 0.781 | 0.996 | 0.714 | 0.855 | 0.697 | 0.7 | 0.684 | 0.975 | 0.434 | 1.06 | 0.865 | 1.25 | 1.17 | 0.781 | 0.829
Calu-6 | 0.922 | 1.07 | 1.02 | 0.831 | 0.769 | 0.745 | 0.833 | 0.767 | 0.781 | 0.781 |  |  |  |  | 0.902 | 1.03 | 0.918 | 0.903 | 0.865 | 
ChaGo-K-1 |  |  |  |  |  | 0.984 |  | 1.12 | 1.04 | 0.866 | 0.582 | 0.396 | 0.492 | 0.432 | 0.963 | 0.921 | 0.965 | 0.841 | 0.652 | 0.55
EBC-1 | 0.952 | 0.984 | 0.862 | 0.587 | 0.553 | 0.21 | 0.221 | 0.166 | 0.194 | 0.21 |  |  |  |  | 0.103 | 0.116 | 0.102 | 0.102 | 0.0881 | 
EKVX | 0.909 | 0.817 | 0.992 | 0.773 | 0.788 | 0.839 | 0.811 | 1.1 | 0.947 | 1.1 | 0.691 | 0.672 | 0.591 | 0.67 | 0.757 | 0.73 | 0.848 | 0.735 | 0.932 | 0.761
EMC-BAC-2 | 0.771 | 0.838 | 0.756 | 0.698 | 0.685 | 0.727 | 0.818 | 0.774 | 0.697 | 0.616 | 0.389 | 0.378 | 0.307 | 0.312 | 0.976 | 0.998 | 1.07 | 1.06 | 1.09 | 0.337
EPLC-272H | 0.89 |  | 1.02 | 0.779 | 0.815 | 0.83 |  | 0.853 | 0.671 | 0.779 | 0.339 |  | 0.213 | 0.224 | 0.744 |  | 0.602 | 0.519 | 0.306 | 0.241
H3255 | 0.719 | 0.814 | 0.674 | 0.576 | 0.92 | 0.882 | 0.939 | 0.838 | 0.735 | 0.836 | 0.558 | 0.536 | 0.475 | 0.616 | 1.11 | 0.825 | 0.929 | 0.676 | 0.998 | 0.636
